According to PubChem BioAssay (NCI):
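1) Cells in 96-well plates. 2) Compound, 48 h, 5 concentrations. 3) Linear interpolation between surrounding doses. 4) Unreached endpoint = highest concentration. TGI marks complete inhibition of growth.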

Experiments:
Assay in all cases: DTP human tumour cell line panel, 48 h
[1] = test system: 786-0 renal
[2] = test system: A549 NSCLC
[3] = test system: CAKI-1 renal
[4] = test system: DLD-1 colon
[5] = test system: DMS 114 small cell lung
[6] = test system: EKVX NSCLC
[7] = test system: HCC-2998 colon
[8] = test system: HCT-116 colon
[9] = test system: HL-60(TB) leukemia
[10] = test system: HOP-18 NSCLC
[11] = test system: HOP-62 NSCLC
[12] = test system: HOP-92 NSCLC
[13] = test system: HT29 colon
[14] = test system: KM12 colon
[15] = test system: KM20L2 colon
[16] = test system: LOX IMVI melanoma
[17] = test system: LXFL 529 NSCLC
[18] = test system: M14 melanoma
[19] = test system: M19-MEL melanoma
[20] = test system: NCI-H226 lung
[21] = test system: NCI-H23 lung
[22] = test system: NCI-H460 lung
[23] = test system: NCI-H522 lung
[24] = test system: OVCAR-4 ovarian
[25] = test system: OVCAR-5 ovarian
[26] = test system: OVCAR-8 ovarian
[27] = test system: RXF 393 renal
[28] = test system: SF-268 CNS
[29] = test system: SF-295 CNS
[30] = test system: SF-539 CNS
[31] = test system: SK-MEL-2 melanoma
[32] = test system: SK-MEL-28 melanoma
[33] = test system: SK-MEL-5 melanoma
[34] = test system: SN12C renal
[35] = test system: SNB-19 CNS
[36] = test system: SNB-75 CNS
[37] = test system: SNB-78 CNS
[38] = test system: SW-620 colon
[39] = test system: TK-10 renal
[40] = test system: U251 CNS
[41] = test system: UACC-257 melanoma
[42] = test system: UO-31 renal
[43] = test system: A498 renal
[44] = test system: ACHN renal
[45] = test system: CCRF-CEM leukemia
[46] = test system: COLO 205 colon
[47] = test system: HCT-15 colon
[48] = test system: IGROV1 ovarian
[49] = test system: K-562 leukemia
[50] = test system: MALME-3M melanoma
[51] = test system: MOLT-4 leukemia
[52] = test system: OVCAR-3 ovarian
[53] = test system: RPMI-8226 leukemia
[54] = test system: SR leukemia
[55] = test system: UACC-62 melanoma
[56] = test system: SK-OV-3 ovarian

`CC(C)N(O)C(=N)c1ccccc1` was tested, and the TGI [1] was > 100 µM, the TGI [2] was > 100 µM and the TGI [3] was > 100 µM. For the same molecule, the TGI [4] was > 100 µM, the TGI [5] was > 100 µM and the TGI [6] was > 100 µM. For the same molecule, the TGI [7] was > 100 µM, the TGI [8] was > 100 µM and the TGI [9] was > 100 µM. For the same molecule, the TGI [10] was 0.849 µM, the TGI [11] was > 100 µM and the TGI [12] was > 100 µM. The TGI [13] was > 100 µM, the TGI [14] was > 100 µM and the TGI [15] was > 100 µM. For the same molecule, the TGI [16] was > 100 µM, the TGI [17] was > 100 µM and the TGI [18] was > 100 µM. For the same molecule, the TGI [19] was > 100 µM, the TGI [20] was > 100 µM and the TGI [21] was > 100 µM. The TGI [22] was > 100 µM, the TGI [23] was > 100 µM and the TGI [24] was > 100 µM. The TGI [25] was > 100 µM, the TGI [26] was > 100 µM and the TGI [27] was > 100 µM. The TGI [28] was > 100 µM, the TGI [29] was > 100 µM and the TGI [30] was > 100 µM. For the same molecule, the TGI [31] was > 100 µM, the TGI [32] was > 100 µM and the TGI [33] was > 100 µM. For the same molecule, the TGI [34] was > 100 µM, the TGI [35] was > 100 µM and the TGI [36] was > 100 µM. The TGI [37] was > 100 µM, the TGI [38] was > 100 µM and the TGI [39] was > 100 µM. The TGI [40] was > 100 µM, the TGI [41] was > 100 µM and the TGI [42] was > 100 µM.

With `N/N=C1\C(=O)N(Cc2ccccc2)C(=O)C1C(=O)NCc1ccccc1` (stereo not given) the TGI [1] was > 100 µM, the TGI [43] was > 100 µM and the TGI [2] was > 100 µM. For the same molecule, the TGI [44] was > 100 µM, the TGI [45] was > 100 µM and the TGI [46] was > 100 µM. The TGI [4] was > 100 µM, the TGI [5] was > 100 µM and the TGI [6] was > 100 µM. For the same molecule, the TGI [7] was > 100 µM, the TGI [8] was > 100 µM and the TGI [47] was > 100 µM. For the same molecule, the TGI [9] was > 100 µM, the TGI [10] was > 100 µM and the TGI [11] was > 100 µM. For the same molecule, the TGI [12] was > 100 µM, the TGI [13] was > 100 µM and the TGI [48] was > 100 µM. For the same molecule, the TGI [49] was > 100 µM, the TGI [14] was > 100 µM and the TGI [15] was > 100 µM. The TGI [17] was > 100 µM, the TGI [18] was > 100 µM and the TGI [19] was > 100 µM. The TGI [50] was > 100 µM, the TGI [51] was > 100 µM and the TGI [21] was > 100 µM. For the same molecule, the TGI [22] was > 100 µM, the TGI [23] was > 100 µM and the TGI [52] was > 100 µM. The TGI [24] was > 100 µM, the TGI [25] was > 100 µM and the TGI [26] was > 100 µM. For the same molecule, the TGI [53] was > 100 µM, the TGI [27] was > 100 µM and the TGI [28] was > 100 µM. For the same molecule, the TGI [29] was > 100 µM, the TGI [30] was > 100 µM and the TGI [31] was > 100 µM. For the same molecule, the TGI [32] was > 100 µM, the TGI [33] was > 100 µM and the TGI [34] was > 100 µM. The TGI [35] was > 100 µM, the TGI [37] was > 100 µM and the TGI [54] was > 100 µM. The TGI [38] was > 100 µM, the TGI [39] was > 100 µM and the TGI [40] was > 100 µM. For the same molecule, the TGI [41] was > 100 µM, the TGI [55] was > 100 µM and the TGI [42] was > 100 µM.

With `COc1cc2c(cc1OC)C1C(=O)c3c(O)cc4c(c3OC1CO2)C=CC(C)(C)O4` (stereo not given) the TGI [43] was > 100 µM, the TGI [2] was > 100 µM and the TGI [44] was > 100 µM. The TGI [3] was > 100 µM, the TGI [5] was 25.7 µM and the TGI [8] was 70.6 µM. The TGI [47] was > 100 µM, the TGI [11] was 55.6 µM and the TGI [12] was 74.5 µM. For the same molecule, the TGI [13] was > 100 µM, the TGI [48] was > 100 µM and the TGI [14] was 68.3 µM. It also gave a TGI [15] of 89.5 µM, a TGI [16] of 38.8 µM and a TGI [17] of 94 µM. It also gave a TGI [18] of 76.3 µM, a TGI [19] of 61.4 µM and a TGI [50] of 72.9 µM. The TGI [22] was 93.1 µM, the TGI [23] was 5.45 µM and the TGI [52] was 65.5 µM. For the same molecule, the TGI [25] was > 100 µM, the TGI [28] was > 100 µM and the TGI [30] was > 100 µM. For the same molecule, the TGI [31] was 50.7 µM, the TGI [32] was > 100 µM and the TGI [33] was 25.3 µM. For the same molecule, the TGI [56] was > 100 µM, the TGI [34] was > 100 µM and the TGI [36] was 96.4 µM. The TGI [37] was > 100 µM, the TGI [54] was > 100 µM and the TGI [38] was > 100 µM. For the same molecule, the TGI [39] was > 100 µM, the TGI [40] was 93.2 µM and the TGI [55] was 52.3 µM. The TGI [42] was 59.2 µM.
